US20250074913A1, “PYRAZOLE DERIVATIVES AS STING AGONISTS” (Hoffmann-La Roche Inc., priority 2022, published 2025)
Read-outs that look alike come from different tables or passages of the source.

Experiments:
human PBMC = test: hPBMC cytokine release assay (Luminex, IFN-β); format: cell-based; conditions: read-out: Agonist_hPBMC_IFN-β_EC50
Method: This is the cytokines concentration detection with Luminex assay for human PBMC supernatant. Human peripheral blood mononuclear cells (PBMC) are treated by compounds with appropriate time. Multiple cytokines are released in the supernatant in response to the compound stimulation. Luminex assay can measure the cytokines concentration in supernatant and the compounds activity on human PBMC can be evaluated.
Frozen PBMC was thawed and cultured in PRMI1640 (GIBCO 11875-093) whole medium with […] Heat inactivated-FBS (HI—FBS), 1% NEAA, […] in CO2 incubator overnight. Cells were centrifuged at 400×g for 5 minutes at 4° C. and the pellet was re-suspended with complete RPMI1640 medium to concentration of 1×10^6 cells/ml in cell culture flask T75 (Thermo Fisher Scientific). Compounds were serially diluted with DMSO and distributed to 96-well flat bottom cell plate (Corning 3599) with Echo555. 90 μL/well PBMC cells were seeded into the plates with Multidrop (Thermo Fisher Scientific). After 24 hours of incubation in CO2 incubator, cells were centrifuged at 400×g for 5 minutes at room temperature, 80 μL supernatant each well was collected for cytokines release test with luminex assay of Human custom ProcartaPlex 5-plex kit (Thermo Fisher Scientific PPX-05). 10 μL supernatant or standards were added to a mixture of color-coded beads, 5 μL Biotinylated detection antibodies specific to the analytes of interest were added and formed an antibody-antigen sandwich. 10 μL Phycoerythrin (PE)-conjugated streptavidin is added to the plate and then read signal of each well on the Luminex 200™. The raw data was analyzed by Millipore Analyst Software and cytokine concentrations were generated accordingly. The EC50 of corresponding cytokine such as interferon-β (IFN-β) was calculated by the 4-parameter sigmoidal concentration response model fitting.

[1] = tested on: interferon regulatory factor (IRF) pathway in THP1-Dual™ cells; test: THP1-Dual reporter gene assay (Agonist_THP1_EC50); format: cell-based; conditions: Homo sapiens, 20-24 hrs compound treatment, Lucia luciferase (IRF) readout
From the text: This is the cellular reporter assay to evaluate compounds' agonism to interferon regulatory factor (IRF) pathway in THP1-Dual™ cells (InvivoGen, cat number thpd-nfis). THP1-Dual™ cells were derived from the human THP-1 monocyte cell line by stable integration lucia luciferase gene, a new secreted luciferase reporter gene, under the control of an ISG54 (interferon-stimulated gene) minimal promoter in conjunction with five interferon (IFN)-stimulated response elements. As a result, THP1-Dual™ cells allow the study of the IRF pathway, by assessing the activity of Lucia luciferase. Lucia luciferase protein is readily measurable in the cell culture supernatant when using QUANTI-Luc™ (InvivoGen, cat: rep-qlcg-500).
After 20-24 hrs compound treatment in THP1-Dual cells, the compounds' agonism to IRF pathway and cell toxicity were tested by measuring luminescence and OD 450 on an Envision plate reader.
On the day of experiment, 30 μL of test medium (RPMI 1640, 2 mM L-glutamine, 25 mM HEPES, […] heat-inactivated fetal bovine serum) was dispensed in a white 384-well plate (Grenier, cat: 781098) containing the serially diluted compounds (final 1% DMSO) transferred by the Echo550 machine. Then 30 μL of cell suspension (˜33,000 cells, 1.1×10^6 cells/mL) per well was added immediately by thermo multidrop combi dispenser for incubation 20-24 h at 37° C., […]. At the end of the incubation, 10 μL of cellular supernatant was transferred to proxiplate 384-plus plate for IRF detection, and then 10 μL of QUANTI-Luc™ Gold solution was added to the plate that proceeded with the measurement immediately. To detect cell viability, 30 μL of the CCK-8 working solution (Dojindo Molecular Technologies, cat: CK04-20) was added to the cell plate, which was Incubated for 2 hrs in the incubator to measure the absorbance at 450 nm using Envision.

[2] = 24 hours incubation, IFN-β in supernatant

SMILES | EC50 [1] | EC50 (human PBMC; prior art compounds (Table 4), IFN-β) | EC50 (human PBMC; [2])
CCn1nc(C)c(O)c1-c1nc(-c2nc(C(N)=O)cc3c2cnn3C)co1 [AE01, reference compound] | – | 40 nM | –
Cc1nn(CC=C(F)F)c(-c2n[nH]c(-c3nc(C(N)=O)cc4c3cnn4C)n2)c1O [Example 34, 4-[3-[2-(3,3-difluoroallyl)-4-hydroxy-5-methyl-pyrazol-3-yl]-1H-1,2,4-triazol-5-yl]-1-methyl-pyrazolo[4,3-c]pyridine-6-carboxamide] | 12 nM | – | 11 nM
CC#CCCn1nc(C)c(O)c1-c1n[nH]c(-c2nc(C(N)=O)cc3c2cnn3C)n1 [Example 45, 4-[3-(4-hydroxy-5-methyl-2-pent-3-ynyl-pyrazol-3-yl)-1H-1,2,4-triazol-5-yl]-1-methyl-pyrazolo[4,3-c]pyridine-6-carboxamide] | 9 nM | – | 9 nM
Cc1cc2c(C(N)=O)nn(-c3nc(-c4c(O)c(C)nn4CCc4ccc(F)cc4)n[nH]3)c2cn1 [Example 52, 1-[3-[2-[2-(4-fluorophenyl)ethyl]-4-hydroxy-5-methyl-pyrazol-3-yl]-1H-1,2,4-triazol-5-yl]-5-methyl-pyrazolo[3,4-c]pyridine-3-carboxamide] | 13 nM | – | 18 nM
Cc1cn2c(C(N)=O)nc(-c3nc(-c4c(O)c(C)nn4CCc4ccccc4)n[nH]3)c2cn1 [Example 53, 1-[3-[4-hydroxy-5-methyl-2-(2-phenylethyl)pyrazol-3-yl]-1H-1,2,4-triazol-5-yl]-6-methyl-imidazo[1,5-a]pyrazine-3-carboxamide] | 12 nM | – | 26 nM
Cc1cc2c(C(N)=O)nn(-c3nc(-c4c(O)c(C)nn4CCc4cccc(F)c4)n[nH]3)c2cn1 [Example 55, 1-(3-(1-(3-fluorophenethyl)-4-hydroxy-3-methyl-1H-pyrazol-5-yl)-1H-1,2,4-triazol-5-yl)-5-methyl-1H-pyrazolo[3,4-c]pyridine-3-carboxamide] | 13 nM | – | 32 nM
CCCn1nc(C)c(O)c1-c1nc(-n2nc(C(N)=O)c3cc(C)ncc32)co1 [Example 58, 1-(2-(4-hydroxy-3-methyl-1-propyl-1H-pyrazol-5-yl)oxazol-4-yl)-5-methyl-1H-pyrazolo[3,4-c]pyridine-3-carboxamide] | 6 nM | – | 17 nM
CCCCn1nc(C)c(O)c1-c1nc(-n2nc(C(N)=O)c3cc(C)ncc32)co1 [Example 59, 1-(2-(1-butyl-4-hydroxy-3-methyl-1H-pyrazol-5-yl)oxazol-4-yl)-5-methyl-1H-pyrazolo[3,4-c]pyridine-3-carboxamide] | 10 nM | – | 7 nM
COCc1ccc(CCn2nc(C)c(O)c2-c2n[nH]c(-n3nc(C(N)=O)c4cc(C)ncc43)n2)cc1 [Example 64, 1-[3-[4-hydroxy-2-[2-[4-(methoxymethyl)phenyl]ethyl]-5-methyl-pyrazol-3-yl]-11H-1,2,4-triazol-5-yl]-5-methyl-pyrazolo[3,4-c]pyridine-3-carboxamide] | 13 nM | – | 35 nM
Cc1cc2c(C(N)=O)nn(-c3coc(-c4c(O)c(C)nn4CCC(F)F)n3)c2cn1 [Example 67, 1-(2-(1-(3,3-difluoropropyl)-4-hydroxy-3-methyl-1H-pyrazol-5-yl)oxazol-4-yl)-5-methyl-1H-pyrazolo[3,4-c]pyridine-3-carboxamide] | 18 nM | – | 24 nM
COc1ccc(CCn2nc(C)c(O)c2-c2n[nH]c(-c3nc(C(N)=O)n4cc(C)ncc34)n2)cc1 [Example 70, 1-[3-[4-hydroxy-2-[2-(4-methoxyphenyl)ethyl]-5-methyl-pyrazol-3-yl]-1H-1,2,4-triazol-5-yl]-6-methyl-imidazo[1,5-a]pyrazine-3-carboxamide] | 6 nM | – | 10 nM
CCCCn1nc(C)c(O)c1-c1n[nH]c(-c2c(F)c(C(N)=O)n3cc(C)ncc23)n1 [Example 76, 8-[3-(2-butyl-4-hydroxy-5-methyl-pyrazol-3-yl)-1H-1,2,4-triazol-5-yl]-7-fluoro-3-methyl-pyrrolo[1,2-a]pyrazine-6-carboxamide] | 15 nM | – | 14 nM

The next lines start with results.

EC50 [1] | SMILES | EC50 (human PBMC; prior art compounds (Table 4), IFN-β) | EC50 (human PBMC; [2])
17 nM | CCCCn1nc(C)c(O)c1-c1n[nH]c(-c2nc(C(N)=O)n3cc(C)ncc23)n1 [Example 77, 1-[3-(2-butyl-4-hydroxy-5-methyl-pyrazol-3-yl)-1H-1,2,4-triazol-5-yl]-6-methyl-imidazo[1,5-a]pyrazine-3-carboxamide] | – | 20 nM
20 nM | CCCn1nc(C)c(O)c1-c1n[nH]c(-c2nc(C(N)=O)n3cc(C)ncc23)n1 [Example 80, 1-[3-(4-hydroxy-5-methyl-2-propyl-pyrazol-3-yl)-1H-1,2,4-triazol-5-yl]-6-methyl-imidazo[1,5-a]pyrazine-3-carboxamide] | – | 42 nM
8 nM | Cc1nn(CCc2ccccc2)c(-c2n[nH]c(-c3nc(C(N)=O)cc4c3cnn4C)n2)c1O [Example 82, 4-(5-(4-hydroxy-3-methyl-1-phenethyl-1H-pyrazol-5-yl)-2H-1,2,4-triazol-3-yl)-1-methyl-1H-pyrazolo[4,3-c]pyridine-6-carboxamide] | – | 29 nM
22 nM | CCCn1nc(C)c(O)c1-c1nc(-n2nc(C(N)=O)c3cc(C)ncc32)c(CO)o1 [Example 83, 1-[5-(hydroxymethyl)-2-(4-hydroxy-5-methyl-2-propyl-pyrazol-3-yl)oxazol-4-yl]-5-methyl-pyrazolo[3,4-c]pyridine-3-carboxamide] | – | 23 nM
34 nM | CCCn1nc(C)c(O)c1-c1nc(-n2nc(C(N)=O)c3cc(C)ncc32)n(C)n1 [Example 84, 1-[5-(4-hydroxy-5-methyl-2-propyl-pyrazol-3-yl)-2-methyl-1,2,4-triazol-3-yl]-5-methyl-pyrazolo[3,4-c]pyridine-3-carboxamide] | – | 18 nM
16 nM | CCCCn1nc(C)c(O)c1-c1nc(-c2nc(C(N)=O)n3cc(C)ncc23)co1 [Example 86, 1-[2-(2-butyl-4-hydroxy-5-methyl-pyrazol-3-yl)oxazol-4-yl]-6-methyl-imidazo[1,5-a]pyrazine-3-carboxamide] | – | 30 nM
55 nM | COCc1ccc(CCn2nc(C)c(O)c2-c2nc(-n3nc(C(N)=O)c4cc(C)ncc43)co2)cc1 [Example 89, 1-[2-[4-hydroxy-2-[2-[4-(methoxymethyl)phenyl]ethyl]-5-methyl-pyrazol-3-yl]oxazol-4-yl]-5-methyl-pyrazolo[3,4-c]pyridine-3-carboxamide] | – | –
30 nM | Cc1cn2c(C(N)=O)nc(-c3nc(-c4c(O)c(C)nn4CCc4nccs4)n[nH]3)c2cn1 [Example 90, 1-[3-[4-hydroxy-5-methyl-2-(2-thiazol-2-ylethyl)pyrazol-3-yl]-1H-1,2,4-triazol-5-yl]-6-methyl-imidazo[1,5-a]pyrazine-3-carboxamide] | – | –
16 nM | CCCn1nc(C)c(O)c1-c1n[nH]c(-c2cc(C(N)=O)n3cc(C)ncc23)n1 [Example 91, 8-[3-(4-hydroxy-5-methyl-2-propyl-pyrazol-3-yl)-1H-1,2,4-triazol-5-yl]-3-methyl-pyrrolo[1,2-a]pyrazine-6-carboxamide] | – | 38 nM
222 nM | CCCn1nc(C)c(O)c1-c1nc(-c2nc(C(N)=O)n3cc(C)ncc23)n(C)n1 [Example 92, 1-[5-(4-hydroxy-5-methyl-2-propyl-pyrazol-3-yl)-2-methyl-1,2,4-triazol-3-yl]-6-methyl-imidazo[1,5-a]pyrazine-3-carboxamide] | – | –
